In patent US11427548B2 (Arvinas Operations, Inc., priority 2015, dated 2022):

Legend:
Androgen Receptor [1] = target: T1, Androgen Receptor (Homo sapiens, UniProt P10275); test: Androgen Receptor ELISA assay (PathScan AR ELISA) in VCaP cells: AR degradation, Dmax and DC50; format: cell-based
T1 construct: endogenous in cells; host or cells: VCaP cells
T1 sequence (P10275 1-920): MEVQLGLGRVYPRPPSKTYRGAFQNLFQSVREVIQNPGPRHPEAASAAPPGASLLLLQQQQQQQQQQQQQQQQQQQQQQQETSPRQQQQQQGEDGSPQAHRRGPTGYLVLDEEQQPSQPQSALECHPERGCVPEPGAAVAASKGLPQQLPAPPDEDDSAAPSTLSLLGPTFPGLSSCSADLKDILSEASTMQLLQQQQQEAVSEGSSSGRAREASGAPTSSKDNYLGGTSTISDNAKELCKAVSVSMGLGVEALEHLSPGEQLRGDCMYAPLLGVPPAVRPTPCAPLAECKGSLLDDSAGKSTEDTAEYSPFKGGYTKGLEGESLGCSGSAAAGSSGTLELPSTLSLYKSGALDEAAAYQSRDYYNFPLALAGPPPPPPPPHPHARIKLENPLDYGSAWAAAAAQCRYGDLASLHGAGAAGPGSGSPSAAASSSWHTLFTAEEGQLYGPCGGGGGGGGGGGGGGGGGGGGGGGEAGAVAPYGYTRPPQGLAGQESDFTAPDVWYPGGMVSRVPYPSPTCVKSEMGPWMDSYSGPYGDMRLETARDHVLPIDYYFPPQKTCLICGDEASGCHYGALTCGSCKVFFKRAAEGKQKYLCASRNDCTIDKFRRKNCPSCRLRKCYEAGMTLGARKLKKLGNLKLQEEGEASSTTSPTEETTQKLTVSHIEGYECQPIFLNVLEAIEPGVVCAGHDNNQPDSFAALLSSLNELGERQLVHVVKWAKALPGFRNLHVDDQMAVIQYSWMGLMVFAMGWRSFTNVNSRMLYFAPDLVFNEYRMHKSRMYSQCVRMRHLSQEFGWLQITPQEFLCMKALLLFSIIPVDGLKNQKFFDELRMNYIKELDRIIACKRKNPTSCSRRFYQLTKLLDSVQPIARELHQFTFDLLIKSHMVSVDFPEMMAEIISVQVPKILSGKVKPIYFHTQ
Method in brief: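 VCaP cells in phenol red-free RPMI with 5% charcoal-stripped FBS were grown at least 3 days, then given compound as 7 half-log doses in 0.1% DMSO with 0.1 nM R1881 for 24 h. Lysates went into a sandwich AR ELISA with TMB read at 450 nm.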

Androgen Receptor [2] = target: T2, Androgen Receptor (Homo sapiens, UniProt P10275+P40337, T878A); test: Androgen Receptor ELISA assay (PathScan AR ELISA) in LNCaP cells: AR degradation, Dmax and DC50; format: cell-based; settings: for DC50: concentration that caused 50% Androgen Receptor degradation
T2 construct: Compounds have been evaluated in this assay in LNCaP and/or VCaP cells utilizing similar protocols; endogenous in cells; host or cells: LNCaP cells

[3] = highest percentage of Androgen Receptor degradation
[4] = highest percentage of Androgen Receptor degradation observed

T2 sequence (P10275 whole entry T878A): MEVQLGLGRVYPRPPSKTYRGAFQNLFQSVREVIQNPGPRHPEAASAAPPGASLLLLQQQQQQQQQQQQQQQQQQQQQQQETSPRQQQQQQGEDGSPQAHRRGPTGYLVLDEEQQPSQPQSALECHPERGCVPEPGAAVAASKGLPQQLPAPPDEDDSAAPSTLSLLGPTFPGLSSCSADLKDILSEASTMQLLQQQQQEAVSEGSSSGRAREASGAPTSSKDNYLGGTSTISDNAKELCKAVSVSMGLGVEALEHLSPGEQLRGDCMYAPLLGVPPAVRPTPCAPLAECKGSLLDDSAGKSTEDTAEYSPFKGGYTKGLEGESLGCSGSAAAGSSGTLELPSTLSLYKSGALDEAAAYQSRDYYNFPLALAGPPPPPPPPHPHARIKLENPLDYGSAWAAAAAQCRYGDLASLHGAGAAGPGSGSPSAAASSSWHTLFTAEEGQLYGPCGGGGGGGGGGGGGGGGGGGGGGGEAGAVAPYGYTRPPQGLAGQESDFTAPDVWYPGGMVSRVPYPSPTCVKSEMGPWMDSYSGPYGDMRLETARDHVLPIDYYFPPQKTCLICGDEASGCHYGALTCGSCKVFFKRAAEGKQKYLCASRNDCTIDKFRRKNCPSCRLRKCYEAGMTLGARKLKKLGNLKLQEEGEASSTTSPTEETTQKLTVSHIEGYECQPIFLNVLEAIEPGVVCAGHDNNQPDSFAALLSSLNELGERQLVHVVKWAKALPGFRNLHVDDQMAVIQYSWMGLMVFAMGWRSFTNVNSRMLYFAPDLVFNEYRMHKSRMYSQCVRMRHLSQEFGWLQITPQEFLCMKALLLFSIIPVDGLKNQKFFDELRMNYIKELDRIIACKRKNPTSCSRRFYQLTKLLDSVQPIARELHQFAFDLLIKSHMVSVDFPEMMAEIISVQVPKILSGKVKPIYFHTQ
T2 sequence (P40337 whole entry): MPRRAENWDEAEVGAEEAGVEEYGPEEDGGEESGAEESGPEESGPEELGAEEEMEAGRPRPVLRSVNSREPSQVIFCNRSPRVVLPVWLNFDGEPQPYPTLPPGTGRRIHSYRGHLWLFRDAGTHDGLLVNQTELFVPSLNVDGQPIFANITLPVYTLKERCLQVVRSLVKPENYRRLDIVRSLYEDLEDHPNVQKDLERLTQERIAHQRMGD
T2 sequence (Q15369 whole entry partner): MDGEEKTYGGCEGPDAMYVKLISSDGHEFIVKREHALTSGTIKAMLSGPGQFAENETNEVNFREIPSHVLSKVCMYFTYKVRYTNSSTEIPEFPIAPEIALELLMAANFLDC
T2 sequence (Q15370 whole entry partner): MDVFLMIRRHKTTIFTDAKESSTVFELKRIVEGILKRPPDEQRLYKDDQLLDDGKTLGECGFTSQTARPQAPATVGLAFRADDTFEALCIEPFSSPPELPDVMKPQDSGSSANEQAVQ

Compound	Dmax (Androgen Receptor [1]; VCaP, read-out: VCaP Dmax (%)) [%]	DC50 (Androgen Receptor [1]; read-out: VCaP DC50, VCaP cells, concentration that caused 50% Androgen Receptor degradation) [nM]	DC50 (Androgen Receptor [2]) [nM]	Dmax (Androgen Receptor [2]; [3]) [%]	Dmax (Androgen Receptor [2]; [4]) [%]
Cc1ncsc1-c1ccc(CNC(=O)[C@@H]2C[C@@H](O)CN2C(=O)[C@@H](NC(=O)CCCOc2ccc(CCOc3ccc(N4C(=S)N(c5ccc(C#N)c(C(F)(F)F)c5)C(=O)C4(C)C)cc3)cc2)C(C)(C)C)cc1 [Example 302]	51 to 70	< 50	51 to 500	> 71	–
Cc1ncsc1-c1ccc(CNC(=O)[C@@H]2C[C@@H](O)CN2C(=O)[C@@H](NC(=O)CCOCCOCCOc2ccc(-c3ccc(N4C(=S)N(c5ccc(C#N)c(C(F)(F)F)c5)C(=O)C4(C)C)cc3)cc2)C(C)(C)C)cc1 [Example 68, (2S,4R)-1-[(2S)-2-[3-(2-{2-[4-(4-{3-[4-cyano-3-(trifluoromethyl)phenyl]-5,5-dimethyl-4-oxo-2-sulfanylideneimidazolidin-1-yl}phenyl)phenoxy]ethoxy}ethoxy)propanamido]-3,3-dimethylbutanoyl]-4-hydroxy-N-{[4-(4-methyl-1,3-thiazol-5-yl)phenyl]methyl}pyrrolidine-2-carboxamide]	–	–	51 to 500	–	26 to 50
Cc1ncsc1-c1ccc(CNC(=O)[C@@H]2C[C@@H](O)CN2C(=O)[C@@H](NC(=O)c2ccc(OCCCOc3ccc(N4C(=S)N(c5ccc(C#N)c(C(F)(F)F)c5)C(=O)C4(C)C)cc3)cc2)C(C)(C)C)cc1 [Example 265]	–	–	51 to 500	< 25	–
Cc1ncsc1-c1ccc(CNC(=O)[C@@H]2C[C@@H](O)CN2C(=O)[C@@H](NC(=O)COCCOCCCOc2ccc(N3C(=S)N(c4ccc(C#N)c(C(F)(F)F)c4)C(=O)C3(C)C)cc2)C(C)(C)C)cc1 [Example 243]	–	–	51 to 500	51 to 70	–
Cc1ncsc1-c1ccc(CNC(=O)[C@@H]2C[C@@H](O)CN2C(=O)[C@@H](NC(=O)c2ccc(OCCOCCCCOc3ccc(N4C(=S)N(c5ccc(C#N)c(C(F)(F)F)c5)C(=O)C4(C)C)cc3)cc2)C(C)(C)C)cc1 [Example 263]	–	–	51 to 500	26 to 50	–
Cc1ncsc1-c1ccc(CNC(=O)[C@@H]2C[C@@H](O)CN2C(=O)[C@H](C(C)C)N2Cc3ccccc3C2=O)c(OCCOCCOCCCCOCCOCCOc2ccc(N3C(=S)N(c4ccc(C#N)c(C(F)(F)F)c4)C(=O)C3(C)C)cc2)c1 [Example 215]	–	–	51 to 500	26 to 50	–
Cc1ncsc1-c1ccc(CNC(=O)[C@@H]2C[C@@H](O)CN2C(=O)[C@@H](NC(=O)CCCOc2ccc(N3C(=S)N(c4ccc(C#N)c(C(F)(F)F)c4)C(=O)C3(C)C)cc2)C(C)(C)C)cc1 [Example 237]	–	–	> 501	26 to 50	–
Cc1ncsc1-c1ccc(CNC(=O)[C@@H]2C[C@@H](O)CN2C(=O)[C@@H](NC(=O)c2ccc(OCCOCCOc3ccc(N4C(=S)N(c5ccc(C#N)c(C(F)(F)F)c5)C(=O)C4(C)C)cc3)cc2)C(C)(C)C)cc1 [Example 264]	–	–	51 to 500	< 25	–
CC(=O)N[C@@H](C)C(=O)N1C[C@H](O)C[C@H]1C(=O)NCc1ccc(-c2scnc2C)cc1OCCOCCOCCOc1ccc(N2C(=S)N(c3ccc(C#N)c(C(F)(F)F)c3)C(=O)C2(C)C)cc1 [Example 272]	–	–	> 501	< 25	–
Cc1ncsc1-c1ccc(CNC(=O)[C@@H]2C[C@@H](O)CN2C(=O)[C@@H](NC(=O)CCCOCCOCCNC(=O)c2ccc(N3C(=S)N(c4ccc(C#N)c(C(F)(F)F)c4)C(=O)C3(C)C)cc2F)C(C)(C)C)cc1 [Example 245]	–	–	> 501	26 to 50	–
Cc1ncsc1-c1ccc(CNC(=O)[C@@H]2C[C@@H](O)CN2C(=O)[C@@H](NC(=O)COCCCOC2CCN(C(=O)c3ccc(N4C(=S)N(c5ccc(C#N)c(C(F)(F)F)c5)C(=O)C4(C)C)cc3)CC2)C(C)(C)C)cc1 [Example 290]	–	–	> 501	51 to 70	–
CCC(=O)N[C@H](C(=O)N1C[C@H](O)C[C@H]1C(=O)NCc1ccc(-c2scnc2C)cc1OCCOCCOCCOc1ccc(N2C(=S)N(c3ccc(C#N)c(C(F)(F)F)c3)C(=O)C2(C)C)cc1)C(C)(C)C [Example 267]	–	–	51 to 500	51 to 70	–
Cc1ncsc1-c1ccc(CNC(=O)[C@@H]2C[C@@H](O)CN2C(=O)[C@@H](NC(=O)COCCOc2ccc(N3C(=S)N(c4ccc(C#N)c(C(F)(F)F)c4)C(=O)C3(C)C)cc2)C(C)(C)C)cc1 [Example 236]	–	–	> 501	26 to 50	–
CCC(=O)N[C@H](C(=O)N1C[C@H](O)C[C@H]1C(=O)NCc1ccc(-c2scnc2C)cc1OCCOCCOCCOc1ccc(N2C(=O)N(c3ccc(C#N)c(C(F)(F)F)c3)C(=O)C2(C)C)cc1)C(C)(C)C [Example 268]	–	–	> 501	51 to 70	–
Cc1ncsc1-c1ccc(CNC(=O)[C@@H]2C[C@@H](O)CN2C(=O)[C@H](C(C)C)N2Cc3ccccc3C2=O)c(OCCCCOCCCCOCCCCOc2ccc(N3C(=S)N(c4ccc(C#N)c(C(F)(F)F)c4)C(=O)C3(C)C)cc2)c1 [Example 207]	–	–	51 to 500	26 to 50	–
Cc1ncsc1-c1ccc([C@H](C)NC(=O)[C@@H]2C[C@@H](O)CN2C(=O)[C@@H](NC(=O)COCCOCCOCCOc2ccc(N3C(=S)N(c4ccc(C#N)c(C(F)(F)F)c4)C(=O)C3(C)C)cc2)C(C)(C)C)cc1 [Example 20, (2S,4R)-1-[(2S)-2-[2-(2-{2-[2-(4-{3-[4-cyano-3-(trifluoromethyl)phenyl]-5,5-dimethyl-4-oxo-2-sulfanylideneimidazolidin-1-yl}phenoxy)ethoxy]ethoxy}ethoxy)acetamido]-3,3-dimethylbutanoyl]-4-hydroxy-N-[(1S)-1-[4-(4-methyl-1,3-thiazol-5-yl)phenyl]ethyl]pyrrolidine-2-carboxamide]	–	–	51 to 500	–	> 71
Cc1ncsc1-c1ccc(CNC(=O)[C@@H]2C[C@@H](O)CN2C(=O)[C@@H](NC(=O)CCOCCNC(=O)CCCc2ccc(N3C(=S)N(c4ccc(C#N)c(C(F)(F)F)c4)C(=O)C3(C)C)cc2)C(C)(C)C)cc1 [Example 232]	–	–	> 501	26 to 50	–
Cc1ncsc1-c1ccc(CNC(=O)[C@@H]2C[C@@H](O)CN2C(=O)[C@H](C(C)C)N2Cc3ccccc3C2=O)c(OCCOCCOCCCCOCCCCOCCOCCOc2ccc(N3C(=S)N(c4ccc(C#N)c(C(F)(F)F)c4)C(=O)C3(C)C)cc2)c1 [Example 219]	–	–	–	> 71	–
Cc1ncsc1-c1ccc(CNC(=O)[C@@H]2C[C@@H](O)CN2C(=O)[C@H](C(C)C)N2Cc3ccccc3C2=O)c(OCCOCCOc2ccc(N3C(=S)N(c4ccc(C#N)c(C(F)(F)F)c4)C(=O)C3(C)C)cc2)c1 [Example 206]	–	–	51 to 500	51 to 70	–
Cc1ncsc1-c1ccc(CNC(=O)[C@@H]2C[C@@H](O)CN2C(=O)[C@@H](NC(=O)c2ccc(OCCOCCCOc3ccc(N4C(=S)N(c5ccc(C#N)c(C(F)(F)F)c5)C(=O)C4(C)C)cc3)cc2)C(C)(C)C)cc1 [Example 274]	–	–	51 to 500	26 to 50	–
Cc1ncsc1-c1ccc(CNC(=O)C2C[C@@H](O)CN2C(=O)[C@H](C(C)C)N2Cc3ccccc3C2=O)c(OCCOCCOCCOc2ccc(N3C(=O)N(c4ccc(C#N)c(C(F)(F)F)c4)C(=O)C3(C)C)cc2)c1 (stereo partly shown) [Example 235]	–	–	51 to 500	51 to 70	–
Cc1ncsc1-c1ccc(CNC(=O)[C@@H]2C[C@@H](O)CN2C(=O)[C@@H](NC(=O)c2ccc(C3CCN(CCCCOc4ccc(N5C(=S)N(c6ccc(C#N)c(C(F)(F)F)c6)C(=O)C5(C)C)cc4)CC3)cc2)C(C)(C)C)cc1 [Example 287]	–	–	> 501	51 to 70	–
Cc1ncsc1-c1ccc(CNC(=O)[C@@H]2C[C@@H](O)CN2C(=O)[C@@H](NC(=O)CCOCCOCCCCCOc2ccc(N3C(=S)N(c4ccc(C#N)c(C(F)(F)F)c4)C(=O)C3(C)C)cc2)C(C)(C)C)cc1 [Example 228]	–	–	51 to 500	51 to 70	–
Cc1ncsc1-c1ccc(CNC(=O)[C@@H]2C[C@@H](O)CN2C(=O)[C@@H](NC(=O)COCCOCCOCCCOCCOCCOc2ccc(N3C(=S)N(c4ccc(C#N)c(C(F)(F)F)c4)C(=O)C3(C)C)cc2)C(C)(C)C)cc1 [Example 216]	–	–	51 to 500	51 to 70	–
